Source: ChEMBL document CHEMBL3044829, “New carbodithioate derivatives: synthesis, characterization, and in vitro antibacterial, antifungal, antitubercular, and antimalarial activity” (Med Chem Res, 2013)
Converted amounts (≈) assume the structure as drawn.

Legend:
[1] = tested on: Mycobacterium tuberculosis; experiment: Antitubercular activity against Mycobacterium tuberculosis H37Rv MTCC 200 assessed as growth inhibition by L.J. MIC method; assay type: functional
Plasmodium falciparum = experiment: Antimalarial activity against chloroquine-sensitive Plasmodium falciparum 3D7 assessed as inhibition of complete maturation into schizonts after 40 hr; assay type: functional; conditions: 3D7, 40 h
Bacillus subtilis = experiment: Antimicrobial activity against Bacillus subtilis MTCC 441 assessed as growth inhibition by broth microdilution method; assay type: functional
[2] = tested on: Mycobacterium tuberculosis; experiment: Antitubercular activity against Mycobacterium tuberculosis H37Rv MTCC 200 assessed as growth inhibition by BACTEC MGIT method; assay type: functional
Vero = experiment: Cytotoxicity against Chlorocebus aethiops (African green monkey) Vero cells assessed as inhibition of cell viability at equal to and greater than MIC for Mycobacterium tuberculosis H37Rv after 72 hr by MTT assay; assay type: cell-based; conditions: chlorocebus sabaeus
Aspergillus clavatus = experiment: Antimicrobial activity against Aspergillus clavatus MTCC 1323 assessed as growth inhibition by broth microdilution method; assay type: functional
[3] = tested on: Mycobacterium tuberculosis; experiment: Antitubercular activity against Mycobacterium tuberculosis H37Rv MTCC 200 assessed as growth inhibition at 6.25 ug/ml by BACTEC MGIT method; assay type: functional
[4] = tested on: Mycobacterium tuberculosis; experiment: Antitubercular activity against Mycobacterium tuberculosis H37Rv MTCC 200 assessed as growth inhibition at MIC by L.J. MIC method; assay type: functional
Candida albicans = experiment: Antimicrobial activity against Candida albicans MTCC 227 assessed as growth inhibition by broth microdilution method; assay type: functional
Escherichia coli = experiment: Antimicrobial activity against Escherichia coli MTCC 443 assessed as growth inhibition by broth microdilution method; assay type: functional
Pseudomonas aeruginosa = experiment: Antimicrobial activity against Pseudomonas aeruginosa MTCC 1688 assessed as growth inhibition by broth microdilution method; assay type: functional
Streptococcus pyogenes = experiment: Antimicrobial activity against Streptococcus pyogenes MTCC 442 assessed as growth inhibition by broth microdilution method; assay type: functional
Staphylococcus aureus = experiment: Antimicrobial activity against Staphylococcus aureus MTCC 96 assessed as growth inhibition by broth microdilution method; assay type: functional
Aspergillus niger = experiment: Antimicrobial activity against Aspergillus niger MTCC 282 assessed as growth inhibition by broth microdilution method; assay type: functional
Klebsiella pneumoniae = experiment: Antimicrobial activity against Klebsiella pneumoniae MTCC 109 assessed as growth inhibition by broth microdilution method; assay type: functional

Row | Compound | MIC [1] | MIC (Plasmodium falciparum) | MIC99 (Bacillus subtilis) | MIC [2] | Activity (Vero) | MIC99 (Aspergillus clavatus) | inhibition at 6.25 µg/mL [3] | inhibition (Growth inhibition) [4] | MIC99 (Candida albicans) | MIC99 (Escherichia coli) | MIC99 (Pseudomonas aeruginosa) | MIC99 (Streptococcus pyogenes) | MIC99 (Staphylococcus aureus) | MIC99 (Aspergillus niger) | MIC99 (Klebsiella pneumoniae)
1 | O=C1C(=O)N(CCCSC(=S)N2CCN(c3ccc(Cl)c(Cl)c3)CC2)c2ccccc21 | 200 µg/mL (≈ 404 µM) | 0.089 µg/mL (≈ 0.18 µM) | 100 µg/mL | > 6.25 µg/mL | Non-toxic | > 1000 µg/mL | 96% | 97% | > 1000 µg/mL | 500 µg/mL | 200 µg/mL | 500 µg/mL | 500 µg/mL | 500 µg/mL | 500 µg/mL
2 | O=C1C(=O)N(CCCSC(=S)N2CCN(c3ccc(Cl)c(Cl)c3)CC2)c2ccc([N+](=O)[O-])cc21 | 100 µg/mL (≈ 185 µM) | 0.5 µg/mL (≈ 0.927 µM) | 250 µg/mL | 6.25 µg/mL (≈ 11.6 µM) | Non-toxic | 200 µg/mL | 99% | 96% | 500 µg/mL | 100 µg/mL | 200 µg/mL | 250 µg/mL | 500 µg/mL | 250 µg/mL | 100 µg/mL
3 | O=C1C(=O)N(CCCSC(=S)N2CCN(c3ccc(Cl)c(Cl)c3)CC2)c2ccc(Cl)cc21 | 250 µg/mL (≈ 473 µM) | 0.2 µg/mL (≈ 0.378 µM) | 500 µg/mL | > 6.25 µg/mL | Non-toxic | > 1000 µg/mL | 91% | 92% | 500 µg/mL | 200 µg/mL | 250 µg/mL | 500 µg/mL | 500 µg/mL | > 1000 µg/mL | 500 µg/mL
4 | O=C(O)c1cn(C2CC2)c2cc(N3CCNCC3)c(F)cc2c1=O [CIPROFLOXACIN] |  |  | ≤ 50 µg/mL |  |  |  |  |  |  | ≤ 25 µg/mL | ≤ 25 µg/mL | ≤ 50 µg/mL | ≤ 25 µg/mL |  | ≤ 25 µg/mL
5 | O=C1C(=O)N(CCSC(=S)N2CCN(c3ccc(Cl)c(Cl)c3)CC2)c2ccc(Cl)cc21 | 100 µg/mL (≈ 194 µM) | 0.061 µg/mL (≈ 0.118 µM) | 100 µg/mL | > 6.25 µg/mL | Non-toxic | 500 µg/mL | 98% | 96% | > 1000 µg/mL | 500 µg/mL | 250 µg/mL | 250 µg/mL | 500 µg/mL | > 1000 µg/mL | 250 µg/mL
6 | NYSTATIN |  |  |  |  |  | 100 µg/mL |  |  | 100 µg/mL |  |  |  |  | 100 µg/mL | 
7 | O=C1C(=O)N(CCSC(=S)N2CCN(c3ccc(Cl)c(Cl)c3)CC2)c2ccccc21 | 250 µg/mL (≈ 520 µM) | 0.25 µg/mL (≈ 0.52 µM) | 200 µg/mL | > 6.25 µg/mL | Non-toxic | 500 µg/mL | 92% | 87% | > 1000 µg/mL | 500 µg/mL | 100 µg/mL | 100 µg/mL | 250 µg/mL | 500 µg/mL | 500 µg/mL
8 | CC1(C)S[C@@H]2[C@H](NC(=O)[C@H](N)c3ccccc3)C(=O)N2[C@H]1C(=O)O [AMPICILLIN] |  |  | 100 µg/mL |  |  |  |  |  |  | 100 µg/mL | 100 µg/mL | 100 µg/mL | 250 µg/mL |  | 100 µg/mL
9 | O=C1C(=O)N(CCCSC(=S)N2CCN(c3ccc(Cl)c(Cl)c3)CC2)c2ccc(F)cc21 | 6.25 µg/mL (≈ 12.2 µM) | 0.092 µg/mL (≈ 0.18 µM) | 500 µg/mL | 6.25 µg/mL (≈ 12.2 µM) | Non-toxic | 250 µg/mL | 99% | 98% | 500 µg/mL | 250 µg/mL | 250 µg/mL | 250 µg/mL | 500 µg/mL | 200 µg/mL | 100 µg/mL
10 | O=C1C(=O)N(CCCSC(=S)N2CCN(c3ccc(Cl)c(Cl)c3)CC2)c2ccc(Br)cc21 | 100 µg/mL (≈ 174 µM) | 0.25 µg/mL (≈ 0.436 µM) | 250 µg/mL | 6.25 µg/mL (≈ 10.9 µM) | Non-toxic | 500 µg/mL | 99% | 94% | 250 µg/mL | 200 µg/mL | 100 µg/mL | 100 µg/mL | 200 µg/mL | 100 µg/mL | 250 µg/mL
11 | CCn1cc(C(=O)O)c(=O)c2cc(F)c(N3CCNCC3)cc21 [NORFLOXACIN] |  |  | ≤ 10 µg/mL |  |  |  |  |  |  | ≤ 10 µg/mL | ≤ 10 µg/mL | ≤ 10 µg/mL | ≤ 10 µg/mL |  | ≤ 10 µg/mL
12 | CCN(CC)CCCC(C)Nc1ccnc2cc(Cl)ccc12 (configuration not stated) [CHLOROQUINE] |  | 0.125 µg/mL (≈ 0.391 µM) |  |  |  |  |  |  |  |  |  |  |  |  | 
13 | S=C(SSC(=S)N1CCN(c2ccc(Cl)c(Cl)c2)CC1)N1CCN(c2ccc(Cl)c(Cl)c2)CC1 | 6.25 µg/mL (≈ 10.2 µM) | 0.25 µg/mL (≈ 0.408 µM) | 100 µg/mL | 6.25 µg/mL (≈ 10.2 µM) | Non-toxic | 100 µg/mL | 99% | 98% | 200 µg/mL | 100 µg/mL | 100 µg/mL | 62.5 µg/mL | 200 µg/mL | 100 µg/mL | 62.5 µg/mL
14 | COC1=CC(=O)C[C@@H](C)[C@]12Oc1c(Cl)c(OC)cc(OC)c1C2=O [GRISEOFULVIN] |  |  |  |  |  | 100 µg/mL |  |  | 500 µg/mL |  |  |  |  | 100 µg/mL | 
15 | CC[C@@H](CO)NCCN[C@@H](CC)CO [ETHAMBUTOL] |  |  |  | 3.12 µg/mL (≈ 15.3 µM) |  |  | 99% |  |  |  |  |  |  |  | 
16 | NNC(=O)c1ccncc1 [ISONIAZID] |  |  |  | 0.2 µg/mL (≈ 1.46 µM) |  |  |  |  |  |  |  |  |  |  | 
17 | O=C1C(=O)N(CCSC(=S)N2CCN(c3ccc(Cl)c(Cl)c3)CC2)c2ccc(Br)cc21 | 6.15 µg/mL (≈ 11 µM) | 0.052 µg/mL (≈ 0.093 µM) | 250 µg/mL | 6.25 µg/mL (≈ 11.2 µM) | Non-toxic | 500 µg/mL | 99% | 99% | 200 µg/mL | 100 µg/mL | 62.5 µg/mL | 62.5 µg/mL | 250 µg/mL | 200 µg/mL | 250 µg/mL
18 | O=C1C(=O)N(CCSC(=S)N2CCN(c3ccc(Cl)c(Cl)c3)CC2)c2ccc(F)cc21 | 3.1 µg/mL (≈ 6.22 µM) | 0.043 µg/mL (≈ 0.0863 µM) | 200 µg/mL | 6.25 µg/mL (≈ 12.5 µM) | Non-toxic | 100 µg/mL | 99% | 99% | 100 µg/mL | 62.5 µg/mL | 100 µg/mL | 62.5 µg/mL | 100 µg/mL | 100 µg/mL | 62.5 µg/mL
19 | NC(=O)c1cnccn1 [PYRAZINAMIDE] |  |  |  | 6.25 µg/mL (≈ 50.8 µM) |  |  | 99% |  |  |  |  |  |  |  | 
20 | CO[C@H]1/C=C/O[C@@]2(C)Oc3c(C)c(O)c4c(O)c(c(/C=N/N5CCN(C)CC5)c(O)c4c3C2=O)NC(=O)/C(C)=C\C=C\[C@H](C)[C@H](O)[C@@H](C)[C@@H](O)[C@@H](C)[C@H](OC(C)=O)[C@@H]1C [RIFAMPIN] |  |  |  | 0.25 µg/mL (≈ 0.304 µM) |  |  | 99% |  |  |  |  |  |  |  | 
21 | O=C1C(=O)N(CCSC(=S)N2CCN(c3ccc(Cl)c(Cl)c3)CC2)c2ccc([N+](=O)[O-])cc21 | 6.25 µg/mL (≈ 11.9 µM) | 0.072 µg/mL (≈ 0.137 µM) | 100 µg/mL | 6.25 µg/mL (≈ 11.9 µM) | Non-toxic | 100 µg/mL | 99% | 99% | 100 µg/mL | 100 µg/mL | 62.5 µg/mL | 100 µg/mL | 62.5 µg/mL | 100 µg/mL | 100 µg/mL
